Laboratory results reported in US9687479B2, “Multisubstituted aromatic compounds as serine protease inhibitors” (VERSEON CORPORATION, priority 2013, dated 2017).

Target: Human thrombin (Homo sapiens (Human), UniProt P00734)
Experiment: Thrombin protease activity inhibition assay (chromogenic substrate S-2238)
Assay type: biochemical
Settings: 3 nM thrombin, 125 μM S-2238, 10 min pre-incubation, RT
Summary of the method: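 Ten-point, three-fold serial dilutions of compound tested against 3 nM enzyme at RT in Tris buffer (0.05 M, pH 7.4) with 0.015 M NaCl and 0.01% PEG-8000.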

SMILES | IC50
COc1ccccc1C(=O)n1nc(-c2cccn(Cc3ccncc3)c2=O)cc1NCc1ccc(Cl)s1 [Cmpd 141, 3-(5-[(5-chlorothiophen-2-yl)methyl]amino-1-[(2-methoxyphenyl)carbonyl]-1H-pyrazol-3-yl)-1-(pyridin-4-ylmethyl)-1,2-dihydropyridin-2-one] | < 100 nM
O=C(c1ccccc1)n1nc(-c2cccn(Cc3ccco3)c2=O)cc1NCc1ccc(Cl)s1 [Cmpd 63, 3-(1-benzoyl-5-[(5-chlorothiophen-2-yl)methyl]amino-1H-pyrazol-3-yl)-1-(furan-2-ylmethyl)-1,2-dihydropyridin-2-one] | < 100 nM
O=C(c1ccc(N2CCOCC2)cc1)n1nc(-c2ccc[nH]c2=O)cc1NCc1ccc(Cl)s1 [Cmpd 207, 3-(5-[(5-chlorothiophen-2-yl)methyl]amino-1-[4-(morpholin-4-yl)phenyl]carbonyl-1H-pyrazol-3-yl)-1,2-dihydropyridin-2-one] | < 100 nM
COc1ccccc1C(=O)n1nc(-c2cccn(Cc3ccco3)c2=O)cc1NCc1ccc(Cl)s1 [Cmpd 135, 3-(5-[(5-chlorothiophen-2-yl)methyl]amino-1-[(2-methoxyphenyl)carbonyl]-1H-pyrazol-3-yl)-1-(furan-2-ylmethyl)-1,2-dihydropyridin-2-one] | < 100 nM
O=C(c1ccccc1Cl)n1nc(-c2cccn(Cc3ccsc3)c2=O)cc1NCc1ccc(Cl)s1 [Cmpd 251, 3-1-[(2-chlorophenyl)carbonyl]-5-[(5-chlorothiophen-2-yl)methyl]amino-1H-pyrazol-3-yl-1-(thiophen-3-ylmethyl)-1,2-dihydropyridin-2-one] | < 100 nM
O=C(c1cccc2c1OCCO2)n1nc(-c2cccn(Cc3ccccc3)c2=O)cc1NCc1ccc(Cl)s1 [Cmpd 45, 1-benzyl-3-(5-[(5-chlorothiophen-2-yl)methyl]amino-1-[(2,3-dihydro-1,4-benzodioxin-5-yl)carbonyl]-1H-pyrazol-3-yl)-1,2-dihydropyridin-2-one] | < 100 nM
COc1ccccc1C(=O)n1nc(-c2cccn(Cc3ccc4ccccc4c3)c2=O)cc1NCc1ccc(Cl)s1 [Cmpd 137, 3-(5-[(5-chlorothiophen-2-yl)methyl]amino-1-[(2-methoxyphenyl)carbonyl]-1H-pyrazol-3-yl)-1-(naphthalen-2-ylmethyl)-1,2-dihydropyridin-2-one] | < 100 nM
O=C(c1ccsc1)n1nc(-c2cccn(CCN3CCOCC3)c2=O)cc1NCc1ccc(Cl)s1 [Cmpd 204, 3-(5-[(5-chlorothiophen-2-yl)methyl]amino-1-[(thiophen-3-yl)carbonyl]-1H-pyrazol-3-yl)-1-[2-(morpholin-4-yl)ethyl]-1,2-dihydropyridin-2-one] | < 100 nM
COCCn1cccc(-c2cc(NCc3ccc(Cl)s3)n[nH]2)c1=O [Cmpd 220, 3-(5-[(5-chlorothiophen-2-yl)methyl]amino-1H-pyrazol-3-yl)-1-(2-methoxyethyl)-1,2-dihydropyridin-2-one] | 10000 to 100000 nM
O=C(c1ccoc1)n1nc(-c2cccn(Cc3cccc4ccccc34)c2=O)cc1NCc1ccc(Cl)s1 [Cmpd 174, 3-(5-[(5-chlorothiophen-2-yl)methyl]amino-1-[(furan-3-yl)carbonyl]-1H-pyrazol-3-yl)-1-(naphthalen-1-ylmethyl)-1,2-dihydropyridin-2-one] | < 100 nM
COc1ccc(C(=O)n2nc(-c3ccc[nH]c3=O)cc2NCc2ccc(Cl)s2)c(OC)c1 [Cmpd 121, 3-(5-[(5-chlorothiophen-2-yl)methyl]amino-1-[(2,4-dimethoxyphenyl)carbonyl]-1H-pyrazol-3-yl)-1,2-dihydropyridin-2-one] | < 100 nM
O=C(c1ccc(N2CCOCC2)cc1)n1nc(-c2cccn(Cc3ccco3)c2=O)cc1NCc1ccc(Cl)s1 [Cmpd 209, 3-(5-[(5-chlorothiophen-2-yl)methyl]amino-1-[4-(morpholin-4-yl)phenyl]carbonyl-1H-pyrazol-3-yl)-1-(furan-2-ylmethyl)-1,2-dihydropyridin-2-one] | < 100 nM
CCOC(=O)Cn1cccc(-c2cc(NCc3ccc(Cl)s3)n(C(=O)c3ccccc3OC)n2)c1=O [Cmpd 258, ethyl 2-[3-(5-[(5-chlorothiophen-2-yl)methyl]amino-1-[(2-methoxyphenyl)carbonyl]-1H-pyrazol-3-yl)-2-oxo-1,2-dihydropyridin-1-yl]acetate] | < 100 nM
COc1ccccc1C(=O)n1nc(-c2cccn(Cc3cccs3)c2=O)cc1NCc1ccc(Cl)s1 [Cmpd 143, 3-(5-[(5-chlorothiophen-2-yl)methyl]amino-1-[(2-methoxyphenyl)carbonyl]-1H-pyrazol-3-yl)-1-(thiophen-2-ylmethyl)-1,2-dihydropyridin-2-one] | < 100 nM
O=C(c1ccccc1)n1nc(-c2cccn(Cc3ccccc3)c2=O)cc1NCc1ccc(Cl)s1 [Cmpd 72, 3-(1-benzoyl-5-[(5-chlorothiophen-2-yl)methyl]amino-1H-pyrazol-3-yl)-1-benzyl-1,2-dihydropyridin-2-one] | < 100 nM
COCC(C)(C)C(=O)n1nc(-c2ccc[nH]c2=O)cc1NCc1ccc(Cl)s1 [Cmpd 96, 3-(5-[(5-chlorothiophen-2-yl)methyl]amino-1-(3-methoxy-2,2-dimethylpropanoyl)-1H-pyrazol-3-yl)-1,2-dihydropyridin-2-one] | < 100 nM
O=C(c1ccco1)n1nc(-c2cccn(Cc3ccccn3)c2=O)cc1NCc1ccc(F)cc1 [Cmpd 74, 3-(5-[(4-fluorophenyl)methyl]amino-1-[(furan-2-yl)carbonyl]-1H-pyrazol-3-yl)-1-(pyridin-2-ylmethyl)-1,2-dihydropyridin-2-one] | < 100 nM
O=C(c1ccccc1)n1nc(-c2cccn(Cc3cccs3)c2=O)cc1NCc1ccc(Cl)s1 [Cmpd 70, 3-(1-benzoyl-5-[(5-chlorothiophen-2-yl)methyl]amino-1H-pyrazol-3-yl)-1-(thiophen-2-ylmethyl)-1,2-dihydropyridin-2-one] | < 100 nM
O=c1c(-c2cc(NCc3ccc(Cl)s3)[nH]n2)cccn1Cc1ccc(Cl)s1 [Cmpd 42, 1-[(5-chlorothiophen-2-yl)methyl]-3-(5-[(5-chlorothiophen-2-yl)methyl]amino-1H-pyrazol-3-yl)-1,2-dihydropyridin-2-one] | > 100000 nM
O=C(c1ccco1)n1nc(-c2cccn(Cc3ccsc3)c2=O)cc1NCc1ccc(Cl)s1 [Cmpd 169, 3-(5-[(5-chlorothiophen-2-yl)methyl]amino-1-[(furan-2-yl)carbonyl]-1H-pyrazol-3-yl)-1-(thiophen-3-ylmethyl)-1,2-dihydropyridin-2-one] | < 100 nM

The next lines start with the values.

IC50 | SMILES
> 100000 nM | COc1ccc(C(=O)n2nc(-c3cccn(Cc4ncccn4)c3=O)cc2NCc2ccc(Cl)s2)c(OC)c1 [Cmpd 128, 3-(5-[(5-chlorothiophen-2-yl)methyl]amino-1-[(2,4-dimethoxyphenyl)carbonyl]-1H-pyrazol-3-yl)-1-(pyrimidin-2-ylmethyl)-1,2-dihydropyridin-2-one]
< 100 nM | CC(C)(C)C(=O)n1nc(-c2cccn(Cc3ccccn3)c2=O)cc1NCc1ccc(Cl)s1 [Cmpd 82, 3-(5-[(5-chlorothiophen-2-yl)methyl]amino-1-(2,2-dimethylpropanoyl)-1H-pyrazol-3-yl)-1-(pyridin-2-ylmethyl)-1,2-dihydropyridin-2-one]
> 100000 nM | O=c1c(-c2cc(NCc3ccc(Cl)s3)[nH]n2)cccn1Cc1ncccn1 [Cmpd 230, 3-(5-[(5-chlorothiophen-2-yl)methyl]amino-1H-pyrazol-3-yl)-1-(pyrimidin-2-ylmethyl)-1,2-dihydropyridin-2-one]
< 100 nM | CCOC(=O)Cn1cccc(-c2cc(NCc3ccc(Cl)s3)n(C(=O)C(C)(C)C)n2)c1=O [Cmpd 257, ethyl 2-[3-(5-[(5-chlorothiophen-2-yl)methyl]amino-1-(2,2-dimethylpropanoyl)-1H-pyrazol-3-yl)-2-oxo-1,2-dihydropyridin-1-yl]acetate]
< 100 nM | COCC(C)(C)C(=O)n1nc(-c2cccn(Cc3ccoc3)c2=O)cc1NCc1ccc(Cl)s1 [Cmpd 99, 3-(5-[(5-chlorothiophen-2-yl)methyl]amino-1-(3-methoxy-2,2-dimethylpropanoyl)-1H-pyrazol-3-yl)-1-(furan-3-ylmethyl)-1,2-dihydropyridin-2-one]
< 100 nM | CC(C)(C)C(=O)n1nc(-c2cccn(Cc3ncccn3)c2=O)cc1NCc1ccc(Cl)s1 [Cmpd 85, 3-(5-[(5-chlorothiophen-2-yl)methyl]amino-1-(2,2-dimethylpropanoyl)-1H-pyrazol-3-yl)-1-(pyrimidin-2-ylmethyl)-1,2-dihydropyridin-2-one]
< 100 nM | CC(C)(C)C(=O)n1nc(-c2cccn(Cc3ccncc3)c2=O)cc1NCc1ccc(Cl)s1 [Cmpd 84, 3-(5-[(5-chlorothiophen-2-yl)methyl]amino-1-(2,2-dimethylpropanoyl)-1H-pyrazol-3-yl)-1-(pyridin-4-ylmethyl)-1,2-dihydropyridin-2-one]
< 100 nM | CC(C)(C)OC(=O)Cn1cccc(-c2cc(NCc3ccc(Cl)s3)n(C(=O)c3ccoc3)n2)c1=O [Cmpd 263, tert-butyl 2-[3-(5-[(5-chlorothiophen-2-yl)methyl]amino-1-[(furan-3-yl)carbonyl]-1H-pyrazol-3-yl)-2-oxo-1,2-dihydropyridin-1-yl]acetate]
< 100 nM | CC(C)(CO)C(=O)n1nc(-c2ccc[nH]c2=O)cc1NCc1ccc(Cl)s1 [Cmpd 91, 3-(5-[(5-chlorothiophen-2-yl)methyl]amino-1-(3-hydroxy-2,2-dimethylpropanoyl)-1H-pyrazol-3-yl)-1,2-dihydropyridin-2-one]
< 100 nM | O=C(c1cccs1)n1nc(-c2cccn(Cc3cccnc3)c2=O)cc1NCc1ccc(Cl)s1 [Cmpd 187, 3-(5-[(5-chlorothiophen-2-yl)methyl]amino-1-[(thiophen-2-yl)carbonyl]-1H-pyrazol-3-yl)-1-(pyridin-3-ylmethyl)-1,2-dihydropyridin-2-one]
< 100 nM | CC(C)(C)C(=O)n1nc(-c2cccn(CC(=O)N3CCOCC3)c2=O)cc1NCc1ccc(Cl)s1 [Cmpd 88, 3-(5-[(5-chlorothiophen-2-yl)methyl]amino-1-(2,2-dimethylpropanoyl)-1H-pyrazol-3-yl)-1-[2-(morpholin-4-yl)-2-oxoethyl]-1,2-dihydropyridin-2-one]
